Entries after “also recorded” stand apart in the source; their conditions may differ. Where two headings read alike, the source gives them in different places.
Columns and labels:
[1] = tested on: patients suffering from pulmonary hypertension (PH); assay: Iloprost bolus inhalation in six further patients (Example 4); format: in vivo, human; conditions: bolus inhalation as in Example 3
Experimental: Six further patients suffering from pulmonary hypertension (PH) were treated with iloprost bolus inhalation as in Example 3.

[2] = cited from earlier work
[3] = tested on: patients with pulmonary arterial hypertension; assay: Clinical pilot study of iloprost bolus inhalation (Example 3); format: in vivo, human
Experimental: A clinical pilot study to evaluate the safety and tolerability of nebulised iloprost administered by bolus inhalation according to the invention was conducted with 4 patients. Eligible were male and female patients with pulmonary arterial hypertension in the age from 18 to 70 years having a mean pulmonary arterial blood pressure (PAP) higher than 25 mm Hg, a pulmonary vascular resistance (PVR) higher than 240 dyn*s*cm^−5, a central venous pressure (CVP) higher than 3 mm Hg, and a pulmonary capillary wedge pressure (PCWP) lower than 12 mm Hg. Excluded were patients with a contraindication for cardiac catheterisation (such as coagulopathy, bleeding disorder, acute infection, severe cardiac dysrhythmia), pregnancy, systemic systolic blood pressure below 110 mm Hg, highly impaired ventricular function with cardiac index below 1.8 L/min*m^2, and known lack of pulmonary vascular reactivity. Patients were monitored by ECG, pulse oxymetry, and non-invasive blood pressure measurement. An intracardiac catheter was introduced into the distal pulmonary artery to measure PAP, CVP, PCWP, and cardiac output. Also measured were the heart rate, systemic arterial pressure (SAP), systemic vascular resistance (SVR), central arterial and venous blood gases. After the initial determination of all parameters the reactivity of the pulmonary vasculature to oxygen (2 to 4 L/min) and nitric oxide (20 ppm) was tested. Subsequently, patients inhaled a single dose of 2.5 μg of nebulised iloprost in two consecutive breaths, using the same inhalation system and iloprost composition as described in Example 1. Haemodynamic parameters and clinical condition of the patients were assessed before and up to 30 minutes after inhalation. In the absence of adverse effects, a second inhalation manoeuvre with 4 consecutive breaths corresponding to a dose 5 μg iloprost was performed, again followed by an observation period of at least 30 minutes.

[4] = bolus inhalation of 2.5 μg and 5 μg, versus slow inhalation of iloprost

- mean systemic arterial pressure (SAP) after bolus inhalation versus baseline, significance ([3]; FIG. 3, n=4, Mann-Whitney rank-sum test): not significant
- systemic vascular resistance (SVR) after bolus inhalation versus baseline, significance ([3]; FIG. 4, n=4, Mann-Whitney rank-sum test): not significant
SMILES: CC#CCC(C)[C@H](O)/C=C/[C@@H]1[C@H]2C/C(=C/CCCC(=O)O)C[C@H]2C[C@H]1O (stereo partly drawn) [iloprost, 5-{(E) -(1S,5S,6R,7R)-7-hydroxy-6[(E)-(3S, 4RS)-3-hydroxy-4-methyl-1-octen-6-inyl]-bi-cyclo[3.3.0]octan-3-ylidene}pentanoic acid]
- adverse effects ([1]; six PH patients): no adverse effects were observed other than the SAP and SVR changes which were mild
- pulmonary vascular effects ([1]; six PH patients (PAH, iPAH, portopulmonary, CTEPH)): very comparable to those found in Example 3
- solubility ([2]; acetone): soluble
- solubility ([2]; aqueous buffer at pH 3): very slightly soluble
- solubility ([2]; aqueous buffer at pH 5): very slightly soluble
- solubility ([2]; aqueous buffer at pH 7): soluble
- solubility ([2]; aqueous buffer pH 9): sparingly soluble
- solubility ([2]; distilled water): very slightly soluble
- solubility ([2]; ethanol): soluble
- solubility ([2]; ethyl acetate): soluble
- solubility ([2]; methanol): soluble
- aqueous solubility ([2]; water): rather poor
- mean pulmonary arterial pressure (PAP) after bolus inhalation versus baseline, p ([3]; FIG. 1, n=4, Mann-Whitney rank-sum test): < 0.05
- tolerability of the treatment ([3]; bolus inhalation of 2.5 μg (2 breaths) and 5 μg (4 breaths), 4 PAH patients): all patients tolerated the treatment well; also recorded: well-tolerated by patients
- systemic side effects (SAP and SVR changes) [3, 4]: comparable to those observed after conventional iloprost treatment
- therapeutic pulmonary vascular effects (PAP and PVR changes) [3, 4]: comparable to those observed after conventional iloprost treatment

From patent US10821116B2, “Administration of iloprost as aerosol bolus” (VECTURA GMBH, priority 2011, dated 2020)
